# Where two headings read alike, the source gives them in different places.
# Columns and labels:
# MRGPRX4 = MRGPRX4 (Homo sapiens, UniProt Q96LA9); experiment: MRGPRX4 activation, Fluo-8 Ca2+ FLIPR assay in HEK293T cells stably expressing MRGPRX4; type: cell-based; conditions: for EC50: MRGPRX4 activation, Ca2+ fluorescence
# Experimental: In some embodiments, cells were cultured in poly-D-Lys coated blacked walled, clear-bottom 96-well microplates. HEK293T cells stably expressing MRGPRX4 were cultured in DMEM medium supplemented with 10% FBS and 1% PS, at 37° C. in a humidified atmosphere with 5% CO2. Cells were detached by centrifuging (1000 rpm, 3 min). The pellet was re-suspended in medium, and cell density was adjusted to about 1×10^6 cells/mL. 100 μL suspension was seeded to each well of a microplates (cell plate). Cells in the microplates were cultured overnight. In the following day, cells were grown to higher than 95% density in each well.
# Ca^2+ fluorescent dye loading: Fluo-8 AM (Screen Quest Fluo-8 AM Calcium Assay Kit, AAT Bioquest, cat. #: 21083) was diluted in HHBS buffer and adjusted to 2 μM (dye buffer). Medium in each well was changed into 50 μL dye buffer carefully. After incubation for 40-60 min under room temperature, the dye buffer was changed into 50 μL HHBS buffer.
# The concentration of solution should be determined according to the protocol settings and experimental needs (e.g., Log[M]=−4, −5, −6, −7, −8, and −9). Prepare 2× serial dilution series of compounds (at least 75 μL per well).
# A fluorescent signal baseline was measured using FLIPR®Tetra for 30 s. Then 50 μL of the chemical solution would be added to the cell plate. The fluorescent signal would be measured for another 150 s.
# Activity of each compound was calculated by the fluorescence change (dF/F0). Curves were fitted to obtain EC50 values. In some embodiments, at least 3 repeats were performed to obtain the average values. For assessment of a compound, gradient diluted solutions of different concentrations were used to treat cells and corresponding responses were used to fit sigmoid function and to derive EC50 in Origin. In some embodiments, assessed concentrations were or included about 10^−4, 10^−4.5, 10^−5, 10^−5.5, 10^−6, 10^−6.5, 10^−7, 10^−8, and/or 10^−9 M; for example, in many instances, assessed concentrations included about 10^−5, 10^−6, 10^−7 and 10^−8 M. In some embodiments, assessed concentrations were about 10^−4, 10^−4.5, 10^−5, 10^−5.5, 10^−6, 10^−7, 10^−8, and 10^−9 M. In some embodiments, assessed concentrations were about 10^−4, 10^−5, 10^−6, 10^−7, 10^−8, and 10^−9 M. In some embodiments, assessed concentrations were about 10^−4, 10^−4.5, 10^−5, 10^−5.5, 10^−6, and 10^−7 M. In some embodiments, assessed concentrations were about 2000000, 1000000, 500000, 250000, 125000, 62500, 31250, 15625, 7813, 3906 nM. […] In some embodiments, assessed concentrations were about 30000, 10000, 3333, 1111, 370, 123, 41, 14, 4.6, 1.5 nM.
# human FXR (NR1H4) = molecular target: T1, human FXR (NR1H4) (Homo sapiens, UniProt Q96RI1); experiment: Human FXR (NR1H4) agonist assessment, FXRE-NanoLuc reporter in HEK293T cells; type: cell-based; conditions: for EC50: read-out: EC50
# T1 sequence (Q96RI1 1-476 isoform Q96RI1-1): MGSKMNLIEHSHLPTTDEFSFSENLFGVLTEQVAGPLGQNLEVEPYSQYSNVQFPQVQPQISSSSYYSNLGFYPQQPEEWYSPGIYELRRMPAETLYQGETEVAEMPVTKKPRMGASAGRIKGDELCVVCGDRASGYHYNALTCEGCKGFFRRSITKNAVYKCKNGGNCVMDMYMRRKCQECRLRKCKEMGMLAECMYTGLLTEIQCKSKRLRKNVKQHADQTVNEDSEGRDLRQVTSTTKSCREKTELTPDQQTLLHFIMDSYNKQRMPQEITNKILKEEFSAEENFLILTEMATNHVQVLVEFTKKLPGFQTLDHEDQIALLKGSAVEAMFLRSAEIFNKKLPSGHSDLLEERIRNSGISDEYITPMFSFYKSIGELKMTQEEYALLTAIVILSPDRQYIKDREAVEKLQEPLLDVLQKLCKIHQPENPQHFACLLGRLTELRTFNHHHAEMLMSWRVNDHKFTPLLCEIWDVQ
# Experimental: As those skilled in the art appreciate, various technologies are available for assessment of FXR activation in accordance with the present disclosure. […] Human FXR (NR1H4) agonist assessment (see, e.g., Yu et al. eLife 2019; 8: e48431): HEK293T cells stably expressing human FXR and containing FXR response element (FXRE)-NanoLuc reporter were cultured in DMEM medium supplemented with 10% FBS and 1% PS, at 37° C. in a humidified atmosphere with 5% CO2. Cells were detached by centrifuging (1000 rpm, 3 min). The pellet was re-suspended in medium, and cell density was adjusted to about 1×10^6 cells/mL. 100 μL suspension was seeded to each well of a white-walled, clear-bottom 96-well microplates (cell plate). Cells in microplates were cultured overnight.
# In the following day, cells were grown to higher than 95% density in each well. Culture medium was replaced, and compounds were added to the wells. 0.01% DMSO (v/v) served as negative control. Plates were incubated at 37° C. in 5% CO2 for 24 hr.
# In the following day, a 10 μL aliquot of cell culture medium was removed from each well and combined with 40 μL culture medium plus […] assay buffer (containing 20 mM of the luciferase substrate coelenterazine). After 5 min incubation, luminescence was measured using an EnVision plate reader (PerkinElmer).
# In some embodiments, gradient diluted solutions of several concentrations were used to treat cells and corresponding responses were used to fit sigmoid function and to derive EC50 in Origin.
# [1] = FXR activation, HEK293T FXRE-NanoLuc reporter, 24 hr
# Chain of MRGPRX4 (Q96LA9 whole entry): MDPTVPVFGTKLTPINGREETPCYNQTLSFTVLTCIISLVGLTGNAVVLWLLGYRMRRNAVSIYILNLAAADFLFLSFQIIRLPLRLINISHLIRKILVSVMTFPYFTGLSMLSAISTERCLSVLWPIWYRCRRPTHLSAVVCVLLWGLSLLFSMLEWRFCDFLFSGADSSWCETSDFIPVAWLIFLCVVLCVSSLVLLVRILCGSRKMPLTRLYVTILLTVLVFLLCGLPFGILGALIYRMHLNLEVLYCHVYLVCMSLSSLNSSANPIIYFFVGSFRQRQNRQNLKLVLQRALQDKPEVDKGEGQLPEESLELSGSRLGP
smiles,measurement,setting,value
"C[C@H](CCC(=O)O)[C@H]1CC[C@H]2[C@@H]3CC[C@@H]4C[C@H](O)CC[C@]4(C)[C@H]3C[C@H](O)[C@]12C [DCA, deoxycholic acid, reference compound]",Activation (%),"MRGPRX4; E3-8-1, 5 nM, n = 1",1.93%
same,Activation (%),"MRGPRX4; E3-8-1, 5 nM, n = 2",0.08%
same,Activation (%),"MRGPRX4; E3-8-1, 15 nM, n = 1",1.01%
same,Activation (%),"MRGPRX4; E3-8-1, 15 nM, n = 2",0.39%
same,Activation (%),"MRGPRX4; E3-8-1, 46 nM, n = 1",2.24%
same,Activation (%),"MRGPRX4; E3-8-1, 46 nM, n = 2",0.70%
same,Activation (%),"MRGPRX4; E3-8-1, 412 nM, n = 1",3.48%
same,Activation (%),"MRGPRX4; E3-8-1, 412 nM, n = 2",0.70%
same,Activation (%),"MRGPRX4; E3-8-1, 1235 nM, n = 1",14.9%
same,Activation (%),"MRGPRX4; E3-8-1, 1235 nM, n = 2",6.58%
same,Activation (%),"MRGPRX4; E3-8-1, 3704 nM, n = 1",37.5%
same,Activation (%),"MRGPRX4; E3-8-1, 3704 nM, n = 2",30.1%
same,Activation (%),"MRGPRX4; E3-8-1, 11111 nM, n = 1",73.8%
same,Activation (%),"MRGPRX4; E3-8-1, 11111 nM, n = 2",56.4%
same,Activation (%),"MRGPRX4; E3-8-1, 33333 nM, n = 1",95.1%
same,Activation (%),"MRGPRX4; E3-8-1, 33333 nM, n = 2",98.5%
same,Activation (%),"MRGPRX4; E3-8-1, 100000 nM, n = 1",96.4%
same,Activation (%),"MRGPRX4; E3-8-1, 100000 nM, n = 2",107.2%
CC[C@H]1[C@@H](O)[C@@H]2[C@H](CC[C@]3(C)[C@@H]([C@H](C)CCc4nnc(C(C)C)s4)CC[C@@H]23)[C@@]2(C)CCCC[C@@H]12 [15-1],"Efficacy (maximum measured induction of NanoLuc, normalized to CDCA set as 100%)",human FXR (NR1H4); [1],B (300%<efficacy <=400%)
same,EC50,human FXR (NR1H4); [1],1000 to 10000 nM
CC[C@H]1[C@@H](O)[C@@H]2[C@H](CC[C@]3(C)[C@@H]([C@H](C)CCNC(=S)NS(=O)(=O)c4ccc(C(C)(C)CF)cc4)CC[C@@H]23)[C@@]2(C)CCCC[C@@H]12 [7-2],"Efficacy (maximum measured induction of NanoLuc, normalized to CDCA set as 100%)",human FXR (NR1H4),B (key: A: efficacy >400%; B: 300%<efficacy <=400%; C: 100%<efficacy <=300%; D: efficacy <=100%)
same,EC50,human FXR (NR1H4); [1],< 1000 nM
C[C@H](CCCCNC(=O)NS(=O)(=O)c1ccc(C(C)(C)CF)cc1)[C@H]1CC[C@H]2[C@@H]3CC[C@@H]4CCCC[C@]4(C)[C@H]3CC[C@]12C [24-1],"Efficacy (maximum measured induction of NanoLuc, normalized to CDCA set as 100%)",human FXR (NR1H4); [1],B (300%<efficacy <=400%)
same,EC50,human FXR (NR1H4); [1],1000 to 10000 nM
C[C@H](CNC(=O)NS(=O)(=O)c1ccc(C(C)(C)CF)cc1)[C@H]1CC[C@H]2[C@@H]3CC[C@@H]4CCCC[C@]4(C)[C@H]3CC[C@]12C [23-1],"Efficacy (maximum measured induction of NanoLuc, normalized to CDCA set as 100%)",human FXR (NR1H4); [1],B (300%<efficacy <=400%)
same,EC50,human FXR (NR1H4); [1],1000 to 10000 nM
"CC[C@H]1[C@@H](O)[C@@H]2[C@H](CC[C@]3(C)[C@@H]([C@H](C)CCC(=O)O)CC[C@@H]23)[C@@]2(C)CC[C@@H](O)C[C@@H]12 [OCA, obeticholic acid, reference compound]",Activation (%),"MRGPRX4; E3-8-1, 3906 nM, n = 1",3.48%
same,Activation (%),"MRGPRX4; E3-8-1, 3906 nM, n = 2",4.41%
same,Activation (%),"MRGPRX4; E3-8-1, 7813 nM, n = 1",3.48%
same,Activation (%),"MRGPRX4; E3-8-1, 7813 nM, n = 2",4.10%
same,Activation (%),"MRGPRX4; E3-8-1, 15625 nM, n = 1",6.58%
same,Activation (%),"MRGPRX4; E3-8-1, 15625 nM, n = 2",9.06%
same,Activation (%),"MRGPRX4; E3-8-1, 31250 nM, n = 1",13.7%
same,Activation (%),"MRGPRX4; E3-8-1, 31250 nM, n = 2",25.8%
same,Activation (%),"MRGPRX4; E3-8-1, 62500 nM, n = 1",65.7%
same,Activation (%),"MRGPRX4; E3-8-1, 62500 nM, n = 2",49.9%
same,Activation (%),"MRGPRX4; E3-8-1, 125000 nM, n = 1",100.4%
same,Activation (%),"MRGPRX4; E3-8-1, 125000 nM, n = 2",85.8%
same,Activation (%),"MRGPRX4; E3-8-1, 250000 nM, n = 1",104.4%
same,Activation (%),"MRGPRX4; E3-8-1, 250000 nM, n = 2",100.4%
same,Activation (%),"MRGPRX4; E3-8-1, 500000 nM, n = 1",138.8%
same,Activation (%),"MRGPRX4; E3-8-1, 500000 nM, n = 2",110.9%
same,Activation (%),"MRGPRX4; E3-8-1, 1000000 nM, n = 1",151.8%
same,Activation (%),"MRGPRX4; E3-8-1, 1000000 nM, n = 2",149.6%
same,Activation (%),"MRGPRX4; E3-8-1, 2000000 nM, n = 1",191.4%
same,Activation (%),"MRGPRX4; E3-8-1, 2000000 nM, n = 2",158.9%
same,EC50,"MRGPRX4; no activation in tested range reported as III, read-out: Activity (EC50 μM)",< 50 µM
same,EC50,"MRGPRX4; read-out: Activity (EC50 μM), value in parentheses",37 µM
